Patent publication US20090012053A1, “Use of LXR agonists for the treatment of osteoarthritis” (Wyeth, priority 2006, published 2009)

System: aggrecanase
Assay: Western blot of aggrecanase-generated aggrecan neoepitopes (BC3, AGEG antibodies) in culture medium of human OA cartilage explants
Assay type: cell-based
Procedure: FIG. 4A is a Western blot showing aggrecanase-generated aggrecan neoepitopes using BC-3 antibody, which recognizes the N-terminus on aggrecanase-generated aggrecan catabolites. Cartilage explants from two human donors with end stage OA (after joint replacement surgery) were used. Donor #259 is a patient, and donor #261 is a patient. Lanes 1, 5: vehicle. Lanes 2, 6: TO901317 (2 μM). Lanes 3, 7: IL-1β+oncostatin M (OSM) (10 ng/ml each). Lanes 4, 8: IL-1β+OSM+TO901317. FIG. 4B is a Western blot showing aggrecanase-generated aggrecan neoepitopes using AGEG antibody, which recognizes a different epitope on aggrecanase-generated aggrecan catabolites. Lanes 1, 5: vehicle. Lanes 2, 6: TO901317 (2 μM). Lanes 3, 7: IL-1β+OSM (10 ng/ml each). Lanes 4, 8: IL-1β+OSM+TO901317. Fresh cartilage from human OA donors was cut into pieces (˜10 mg/piece, ˜2×2×2 mm). The cartilage explants were randomized into 24 well plates (˜250 mg wet weight/well). Three wells of explants were included for each treatment group. The explants were cultured in 1 ml DMEM/F-12 with 10% FBS for 3 days, then the complete medium was replaced with serum-free medium. Twelve hours later, the medium was removed and fresh serum-free medium (1 ml) was added, followed by LXR agonist T0901317 treatment (2 μM). IL1β/Oncostatin M (10 ng/ml each) were added 8 hours later. The explants were then cultured in the presence or absence of LXR agonist T0901317 and IL1β/Oncostatin M for additional 20 hours. 180 μl of pooled culture medium from each treatment group was deglycosylated with chondroitinase ABC, keratanase, keratanase II in the presence of 50 mM EDTA at 37° C. for 3 hrs. The samples were then concentrated and separated in a 4-12% SDS-PAGE gel. Western analysis was performed using either mouse BC3 neoepitope antibody (1:1500), or rabbit anti-AGEG antibody (1:1000) as the primary antibody, and anti-mouse or anti-rabbit IgG antibody conjugated with […] (1:5000) as the secondary antibody. […] Treatment with T0901317 blocked the induction of BC3 and AEEG release by cytokines. In the experiment using donor #261, BC3- and AEGE-containing aggrecan fragments were released into the culture medium from untreated cartilage explants.

`O=S(=O)(c1ccccc1)N(CC(F)(F)F)c1ccc(C(O)(C(F)(F)F)C(F)(F)F)cc1` [Formula T0901317, N-(2,2,2-trifluoroethyl)-N-{4-[2,2,2-trifluoro-1-hydroxy-1-(trifluoromethyl)ethyl]phenyl}benzene sulfonamide] was tested, and the “cytokine-induced release of BC3 containing aggrecan fragments into the culture medium” value (donor #259, 2 μM, IL1β/Oncostatin M 10 ng/ml each, FIG. 4A) was “blocked”, the “cytokine-induced release of AGEG containing aggrecan fragments into the culture medium” value (donor #259, 2 μM, IL1β/Oncostatin M 10 ng/ml each, FIG. 4B) was “blocked” and the “cytokine-induced release of AGEG-containing fragment from the explants” value (donor #261, 2 μM, IL1β/Oncostatin M 10 ng/ml each, FIG. 4B) was “it was blocked”. The “amount of BC3-containing aggrecan fragments released into the culture medium without cytokines” value (donor #261, 2 μM, no cytokine, FIG. 4A) was “reduced the amount of these fragments” and the “amount of AGEG-containing aggrecan fragments released into the culture medium without cytokines” value (donor #261, 2 μM, no cytokine, FIG. 4B) was “reduced the amount of these fragments”.
